Laboratory results from article PMC5909415 (ACS nano, 2015).

Assays:
HSA = HSA (Homo sapiens, UniProt P02768); test: Interaction between avasimibe and HSA; assay type: binding; details: avasimibe:HSA molar ratio 16:1, warfarin:HSA 10:1, warfarin fluorescence
PC3 = test: Cell viability assay; assay type: cell-based; details: Homo sapiens, PC-3, 72 h, read-out: IC50 of avasimin (containing avasimibe)
[1] = Blood bioavailability of avasimibe; assay type: in vivo, mice; details: nude, mouse, whole blood, po
[2] = Tissue distribution of avasimibe in PC3 tumor-bearing mice; assay type: in vivo; details: oral avasimibe 15 mg/kg, 2 hr
PC3 tumors = test: Anti-tumor effect, PC3 tumor xenograft; details: oral avasimibe 15 mg/kg daily by gavage, versus PBS
cancer and normal cells = test: Cell viability assay; assay type: cell-based, human; details: 72 h

Sequence of HSA (P02768 25-609): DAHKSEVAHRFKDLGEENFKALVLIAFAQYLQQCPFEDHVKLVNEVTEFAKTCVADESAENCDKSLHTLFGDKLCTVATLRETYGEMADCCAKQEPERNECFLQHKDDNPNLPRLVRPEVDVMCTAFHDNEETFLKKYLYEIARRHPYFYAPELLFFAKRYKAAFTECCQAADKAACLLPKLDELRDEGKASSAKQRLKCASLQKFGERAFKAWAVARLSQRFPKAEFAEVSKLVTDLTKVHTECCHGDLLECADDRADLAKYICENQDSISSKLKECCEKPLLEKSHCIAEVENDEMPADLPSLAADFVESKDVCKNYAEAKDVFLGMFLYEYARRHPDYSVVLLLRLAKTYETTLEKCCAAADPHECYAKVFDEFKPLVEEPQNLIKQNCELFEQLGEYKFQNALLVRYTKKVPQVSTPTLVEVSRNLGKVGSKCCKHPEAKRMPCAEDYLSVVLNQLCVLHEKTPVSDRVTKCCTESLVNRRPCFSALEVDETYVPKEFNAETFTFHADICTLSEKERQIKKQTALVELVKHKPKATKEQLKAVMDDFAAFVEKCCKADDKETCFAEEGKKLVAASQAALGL

Row | Structure (SMILES) | replacement of warfarin at the primary binding site (site I) of HSA (HSA) | IC50 (PC3) [µM] | AUC ([1]; 15 mg/kg) [ng·h/mL] | AUC ([1]; 100 mg/kg) [ng·h/mL] | avasimibe in the tumor tissue [2] | distribution of avasimibe to liver [2] | excretion of avasimibe through feces [2] | anti-tumor effect in terms of tumor volume (PC3 tumors) | effect on viability of cancer and normal cells (cancer and normal cells)
1 | CC(C)c1cc(C(C)C)c(CC(=O)NS(=O)(=O)Oc2c(C(C)C)cccc2C(C)C)c(C(C)C)c1 [avasimibe] | complete replacement of warfarin | 8.5 | 14900 | 49900 | not detectable | most orally administered avasimibe was found in the liver tissue | considerable amount of avasimibe was excreted through the feces | did not exhibit anti-tumor effect | –
2 | N.N.[Cl][Pt][Cl] [cisplatin] | – | – | – | – | – | – | – | – | non-selective cytotoxic effects
3 | Nc1ccn([C@@H]2O[C@H](CO)[C@@H](O)C2(F)F)c(=O)n1 [gemcitabine] | – | – | – | – | – | – | – | – | non-selective cytotoxic effects
